Data from US20230391727A1, “ANALOGUES OF PENTAMIDINE AND METHODS FOR TREATING INFECTIONS” (Auransa Inc., priority 2020, published 2023).
≈ marks a conversion by molar mass, not a printed value. Like-named read-outs stand apart in the source and are kept apart here.

Experiments:
Assay type in all cases: cell-based
Candida albicans 43001 = experiment: Anti-fungal MIC assay
Method: (§1) The first round of testing included Candida parapsilosis, Candida krusei, Paecilomyces variotii, Candida albicans, Aspergillus fumigatus, and Blastomyces dermatitidis. […] The second round of testing included Candida parapsilosis, Candida krusei, Candida albicans, Candida auris, Candida glabrata, Candida guilliermondii, and Cryptococcus neoformans.
(§2) Stock solutions of the investigational agent were prepared at concentrations 100-times the highest concentration to be tested (6400 μg/ml) using dimethyl sulfoxide. Aliquots of the stock solutions were dispensed into polystyrene vials and stored at −20° C.
(§3) The synthetic medium RPMI-1640 (with glutamine, without bicarbonate, and with phenol red) was used. The RPMI was buffered to a pH of 7.0+0.1 at 25° C. with 0.165M MOPS (3-[N-morpholino] propanesulfonic acid). Sterile U-shaped 96-well cell culture plates were used to perform the MIC assays. Dilutions of the DMSO stocks were prepared in RPMI to achieve 2× concentrations. After the dilutions of the working 2× investigational antifungal solutions were prepared, 0.1 ml of each concentration was transferred into a pre-specified column of the U-shaped 96-well cell culture plate using sterile pipettes.
(§4) Fungal isolates were grown on Sabouraud dextrose agar (yeasts) or potato flake agar (filamentous fungi) and cells were collected after an appropriate period of growth for each species being evaluated (e.g., 48-72 hours for yeasts and 7 days for filamentous fungi). The fungi were suspended in sterile distilled water, and the densities of the fungal suspension were read using a spectrophotometer and adjusted to an appropriate optical density specific for each fungal species. The fungal suspension of each isolate was then diluted in RPMI. A sufficient volume of the test inoculum was prepared to directly inoculate 0.1 ml into each test well of the 96-well cell culture plate. Final inoculum ranges were dependent on the fungal species to be tested (e.g., 0.4×103 to 5×10^3 cells/ml for yeasts and dimorphic fungi, and 0.4×104 to 5×10^4 cells/ml for filamentous fungi). Each well of the 96-well cell culture plate containing the investigational antifungal compounds (0.1 ml volume) was inoculated on the day of the assay with 0.1 ml of the fungal suspension. Growth control wells contained 0.1 ml of fungal suspension and 0.1 ml of the growth medium without antifungal agents. The media control well contained 0.2 ml of the growth medium.
(§5) The microdilution trays were incubated at 35° C. without agitation. […] One positive comparator/control was used for yeast (fluconazole) and one was used for filamentous fungi (voriconazole).

[1] = tested on: Candida albicans ATCC90028; experiment: Anti-fungal MIC assay
Method: as §1, §2, §3, §4, §5

Candida albicans CA3 = experiment: Anti-fungal MIC assay
Method: as §1, §2, §3, §4, §5

Candida albicans CA5 = experiment: Anti-fungal MIC assay
Method: as §1, §2, §3, §4, §5

Candida albicans CA6 = experiment: Anti-fungal MIC assay
Method: as §1, §2, §3, §4, §5

Candida albicans SC5314 = experiment: Anti-fungal MIC assay
Method: as §1, §2, §3, §4, §5

Candida auris DI17-46 = experiment: Anti-fungal MIC assay; conditions: Candidozyma auris
Method: as §1, §2, §3, §4, §5

Candida auris DI17-47 = experiment: Anti-fungal MIC assay; conditions: Candidozyma auris
Method: as §1, §2, §3, §4, §5

Candida auris DI17-48 = experiment: Anti-fungal MIC assay; conditions: Candidozyma auris
Method: as §1, §2, §3, §4, §5

Candida glabrata 05-62 = experiment: Anti-fungal MIC assay
Method: as §1, §2, §3, §4, §5

Candida glabrata 05-761 = experiment: Anti-fungal MIC assay
Method: as §1, §2, §3, §4, §5

Candida glabrata CG3 = experiment: Anti-fungal MIC assay; conditions: Nakaseomyces glabratus
Method: as §1, §2, §3, §4, §5

[2] = tested on: Candida guilliermondii Cgui1; experiment: Anti-fungal MIC assay; conditions: Meyerozyma guilliermondii
Method: as §1, §2, §3, §4, §5

[3] = tested on: Candida guilliermondii Cgui2; experiment: Anti-fungal MIC assay; conditions: Meyerozyma guilliermondii
Method: as §1, §2, §3, §4, §5

[4] = tested on: Candida guilliermondii Cgui3; experiment: Anti-fungal MIC assay; conditions: Meyerozyma guilliermondii
Method: as §1, §2, §3, §4, §5

Candida krusei ATCC6258 = experiment: Anti-fungal MIC assay; conditions: Pichia kudriavzevii, second round (Table 6)
Method: as §1, §2, §3, §4, §5

[5] = tested on: Candida parapsilosis ATCC22019; experiment: Anti-fungal MIC assay; conditions: Lodderomyces parapsilosis
Method: as §1, §2, §3, §4, §5

Candida parapsilosis CP1 = experiment: Anti-fungal MIC assay
Method: as §1, §2, §3, §4, §5

Candida parapsilosis CP2 = experiment: Anti-fungal MIC assay; conditions: Lodderomyces parapsilosis
Method: as §1, §2, §3, §4, §5

Candida parapsilosis CP3 = experiment: Anti-fungal MIC assay; conditions: Lodderomyces parapsilosis
Method: as §1, §2, §3, §4, §5

[6] = tested on: Cryptococcus neoformans CN3; experiment: Anti-fungal MIC assay
Method: as §1, §2, §3, §4, §5

[7] = tested on: Cryptococcus neoformans H99; experiment: Anti-fungal MIC assay
Method: as §1, §2, §3, §4, §5

[8] = tested on: Cryptococcus neoformans USC 1597; experiment: Anti-fungal MIC assay
Method: as §1, §2, §3, §4, §5

[9] = tested on: Paecilomyces variotii MYA-3630; experiment: Anti-fungal MIC assay
Method: as §1, §2, §3, §4, §5

[10] = tested on: Staphylococcus aureus ATCC 19636; experiment: MIC assay against gram positive and antibiotic-resistant S. aureus; conditions: Staphylococcus aureus, ATCC19636
Method: (§6) The MICs of vancomycin and linezolid were determined as quality controls and the MIC values of each strain met the acceptance criteria based on PDS historical reference data.
(§7) The direct colony suspension method was used to prepare inoculated broth. Isolated colonies were taken from an 18-24 h culture plate. Optical density measurements (OD620 nm) were used to estimate the bacterial density. The test article, compound 3, and reference control stock solutions were prepared in 100% DMSO as 50× stock solutions. The 50× stock solutions were diluted by 2-fold serial titrations with 100% DMSO for a total of 11 concentrations. A 4 μL aliquot of each dilution was added to 196 μL of cation-adjusted Mueller Hinton Broth II medium seeded with the organism in wells of a 96 well plate. The final vehicle concentration was two percent (2%) in all assay wells. The final bacterial count was 2 to 8×10^5 CFU/mL. The final compound 3 concentration range was 16 to 0.016 μg/mL. Each test substance dilution was evaluated in duplicate on one test occasion. Vehicle-control and reference controls were used as blank and positive controls, respectively. Plates were incubated at 35-37° C. for 18 h. The test plates were visually examined and each well was visually scored for growth or complete inhibition of growth. The MIC value was recorded.

[11] = tested on: Staphylococcus aureus ATCC 33591 (MRSA); experiment: as above; conditions: Staphylococcus aureus
Method: as §6, §7

[12] = tested on: Staphylococcus aureus BAA-1556 (MRSA); experiment: as above; conditions: Staphylococcus aureus
Method: as §6, §7

[13] = tested on: Staphylococcus aureus VRS-2 (VRSA); experiment: as above; conditions: Staphylococcus aureus, VRSA
Method: as §6, §7

[14] = read-out: MIC, 50% growth inhibition
[15] = read-out: MIC, 100% growth inhibition

OC(Cn1cncn1)(Cn1cncn1)c1ccc(F)cc1F [Fluconazole, reference compound]
MIC (Candida albicans 43001; [14]): > 64 µg/mL
MIC (Candida albicans 43001; [15]): > 64 µg/mL
MIC [1, 14]: ≤ 0.125 µg/mL
MIC [1, 15]: > 64 µg/mL
MIC (Candida albicans CA3; [14]): > 64 µg/mL
MIC (Candida albicans CA3; [15]): > 64 µg/mL
MIC (Candida albicans CA5; [14]): 0.25 µg/mL (≈ 0.816 µM)
MIC (Candida albicans CA5; [15]): > 64 µg/mL
MIC (Candida albicans CA6; [14]): 0.25 µg/mL (≈ 0.816 µM)
MIC (Candida albicans CA6; [15]): > 64 µg/mL
MIC (Candida albicans SC5314; [14]): 0.25 µg/mL (≈ 0.816 µM)
MIC (Candida albicans SC5314; [15]): > 64 µg/mL
MIC (Candida auris DI17-46; DI1746, read-out: MIC, 50% growth inhibition): > 64 µg/mL
MIC (Candida auris DI17-46; DI1746, read-out: MIC, 100% growth inhibition): > 64 µg/mL
MIC (Candida auris DI17-47; DI1747, read-out: MIC, 50% growth inhibition): > 64 µg/mL
MIC (Candida auris DI17-47; DI1747, read-out: MIC, 100% growth inhibition): > 64 µg/mL
MIC (Candida auris DI17-48; DI1748, read-out: MIC, 50% growth inhibition): 2 µg/mL (≈ 6.53 µM)
MIC (Candida auris DI17-48; DI1748, read-out: MIC, 100% growth inhibition): 16 µg/mL (≈ 52.2 µM)
MIC (Candida glabrata 05-62; Nakaseomyces glabratus, 0562, read-out: MIC, 50% growth inhibition): > 64 µg/mL
MIC (Candida glabrata 05-62; Nakaseomyces glabratus, 0562, read-out: MIC, 100% growth inhibition): > 64 µg/mL
MIC (Candida glabrata 05-761; Nakaseomyces glabratus, 05761, read-out: MIC, 50% growth inhibition): 8 µg/mL (≈ 26.1 µM)
MIC (Candida glabrata 05-761; Nakaseomyces glabratus, 05761, read-out: MIC, 100% growth inhibition): 32 µg/mL (≈ 104 µM)
MIC (Candida glabrata CG3; [14]): 0.5 µg/mL (≈ 1.63 µM)
MIC (Candida glabrata CG3; [15]): 64 µg/mL (≈ 209 µM)
MIC [2, 14]: 1 µg/mL (≈ 3.27 µM)
MIC [2, 15]: 4 µg/mL (≈ 13.1 µM)
MIC [3, 14]: 2 µg/mL (≈ 6.53 µM)
MIC [3, 15]: 4 µg/mL (≈ 13.1 µM)
MIC [4, 14]: 2 µg/mL (≈ 6.53 µM)
MIC [4, 15]: 4 µg/mL (≈ 13.1 µM)
MIC (Candida krusei ATCC6258; ATCC6258, C. krusei ATCC 6258, read-out: MIC, 50% growth inhibition): 16 µg/mL (≈ 52.2 µM)
MIC (Candida krusei ATCC6258; ATCC6258, read-out: MIC, 100% growth inhibition, C. krusei ATCC 6258): 32 µg/mL (≈ 104 µM)
MIC ([5]; ATCC22019, C. parapsilosis ATCC 22019, second round (Table 6), read-out: MIC, 50% growth inhibition): 2 µg/mL (≈ 6.53 µM)
MIC ([5]; ATCC22019, Candida parapsilosis ATCC22019, first round (Table 5), read-out: MIC, 50% growth inhibition): 1 µg/mL (≈ 3.27 µM)
MIC ([5]; ATCC22019, read-out: MIC, 100% growth inhibition, C. parapsilosis ATCC 22019, second round (Table 6)): 2 µg/mL (≈ 6.53 µM)
MIC ([5]; ATCC22019, read-out: MIC, 100% growth inhibition, Candida parapsilosis ATCC22019, first round (Table 5)): 2 µg/mL (≈ 6.53 µM)
MIC (Candida parapsilosis CP1; [14]): 0.5 µg/mL (≈ 1.63 µM)
MIC (Candida parapsilosis CP1; [15]): 1 µg/mL (≈ 3.27 µM)
MIC (Candida parapsilosis CP2; [14]): 0.5 µg/mL (≈ 1.63 µM)
MIC (Candida parapsilosis CP2; [15]): 0.5 µg/mL (≈ 1.63 µM)
MIC (Candida parapsilosis CP3; [14]): 1 µg/mL (≈ 3.27 µM)
MIC (Candida parapsilosis CP3; [15]): 1 µg/mL (≈ 3.27 µM)
MIC [6, 14]: > 64 µg/mL
MIC [6, 15]: > 64 µg/mL
MIC [7, 14]: 16 µg/mL (≈ 52.2 µM)
MIC [7, 15]: 32 µg/mL (≈ 104 µM)
MIC ([8]; USC1597, read-out: MIC, 50% growth inhibition): 4 µg/mL (≈ 13.1 µM)
MIC ([8]; USC1597, read-out: MIC, 100% growth inhibition): 8 µg/mL (≈ 26.1 µM)
MIC ([9]; MYA3630, read-out: MIC, 50% growth inhibition): 16 µg/mL (≈ 52.2 µM)
MIC ([9]; MYA3630, read-out: MIC, 100% growth inhibition): 32 µg/mL (≈ 104 µM)

CN[C@H](CC(C)C)C(=O)N[C@H]1C(=O)N[C@@H](CC(N)=O)C(=O)N[C@H]2C(=O)N[C@H]3C(=O)N[C@H](C(=O)N[C@H](C(=O)O)c4cc(O)cc(O)c4-c4cc3ccc4O)[C@H](O)c3ccc(c(Cl)c3)Oc3cc2cc(c3O[C@@H]2O[C@H](CO)[C@@H](O)[C@H](O)[C@H]2O[C@H]2C[C@](C)(N)[C@H](O)[C@H](C)O2)Oc2ccc(cc2Cl)[C@H]1O [Vancomycin]
MIC [10]: 0.5 µg/mL (≈ 0.345 µM)
MIC [11]: 0.5 µg/mL (≈ 0.345 µM)
MIC [12]: 0.5 µg/mL (≈ 0.345 µM)
MIC [13]: > 64 µg/mL
